# Where “and” joins values, the source holds several entries; their conditions need not be identical. Equal entries are not always repeated.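 In this assay, cells in 96-well plates receive the compound at five concentrations for 48 hours. Endpoints are linearly interpolated between the surrounding concentrations. GI50: concentration for 50% inhibition of growth. TGI denotes the concentration required for complete inhibition of growth.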
# Tests used:
# Assay in all cases: DTP human tumour cell line panel, 48 h
# KM12 colon = tested on: KM12 colon
# MALME-3M melanoma = tested on: MALME-3M melanoma
# UO-31 renal = tested on: UO-31 renal
# HT29 colon = tested on: HT29 colon
# OVCAR-4 ovarian = tested on: OVCAR-4 ovarian
# MDA-MB-435 = tested on: MDA-MB-435
# NCI-H226 lung = tested on: NCI-H226 lung
# IGROV1 ovarian = tested on: IGROV1 ovarian
# CCRF-CEM leukemia = tested on: CCRF-CEM leukemia
# SR leukemia = tested on: SR leukemia
Compound,GI50 (KM12 colon),TGI (KM12 colon),GI50 (MALME-3M melanoma),TGI (MALME-3M melanoma),GI50 (UO-31 renal),TGI (UO-31 renal),GI50 (HT29 colon),TGI (HT29 colon),GI50 (OVCAR-4 ovarian),TGI (OVCAR-4 ovarian),GI50 (MDA-MB-435),TGI (MDA-MB-435),GI50 (NCI-H226 lung),TGI (NCI-H226 lung),GI50 (IGROV1 ovarian),TGI (IGROV1 ovarian),GI50 (CCRF-CEM leukemia),TGI (CCRF-CEM leukemia),GI50 (SR leukemia),TGI (SR leukemia)
COC(=O)c1oc2c(C(=O)/C=C/c3ccc(OC)cc3)c(OCCN(C)C)ccc2c1C,9.43 µM,24.5 µM,11.4 µM,27.8 µM,5.14 µM,18.2 µM,3.72 µM,9.83 µM,5.06 µM,16.8 µM,4.57 µM,16.3 µM,13.1 µM,27.8 µM,5.99 µM,21.4 µM,2.24 µM,6.93 µM,2.37 µM,7.38 µM
CCCCCC/C=C\CCCCCCCCCC1=C(CN2CCN(C)CC2)C(=O)C=C(OC)C1=O,,21 µM,,9.55 µM,,9.2 µM,,23.9 µM,,3.8 µM,,21.1 µM,,30 µM,,18.3 µM,,1.95 µM,,1.81 µM
Clc1ccccc1-c1nnc2c(Cc3ccccc3)nc3ccccc3n12,13.1 µM,> 100 µM,33 µM,> 100 µM,> 50 µM,> 100 µM,8.71 µM,> 100 µM,5.55 µM,> 100 µM,> 100 µM,> 100 µM,6.91 µM,> 100 µM,44 µM,> 100 µM,7.11 µM,> 100 µM,3.91 µM,> 100 µM
CC(=O)C1=C(O)C=C2Oc3c(C(=O)/C=C/c4cc(Cl)cc(Cl)c4)c(O)c(C)c(O)c3[C@]2(C)C1=O,0.46 µM,1.76 µM,0.335 µM,0.739 µM,0.392 µM,1.03 µM,0.47 µM,1.56 µM,0.565 µM,7.17 µM,0.493 µM,1.87 µM,1.21 µM,5.49 µM,0.673 µM,4.69 µM,0.498 µM,2.65 µM,0.459 µM,4.35 µM
CCN(CC)CCCC(C)N/C(=C1\C(=O)NC(=O)\C1=C(/NC(C)CCCN(CC)CC)c1cccc(OC)c1)c1cccc(OC)c1 (stereo not given),0.835 µM,4.06 µM,0.85 µM,1.63 µM,0.733 µM,1.49 µM,0.372 µM,2.01 µM,0.742 µM,2.2 µM,0.803 µM,1.52 µM,1.29 µM,5.9 µM,0.844 µM,2.35 µM,0.816 µM,2.89 µM,0.444 µM,2.13 µM
Oc1c(Cl)cc(Cl)c2ccc(Cn3cc(-c4ccc(C(F)(F)F)cc4)nn3)nc12,12.1 µM,26.6 µM,1.63 µM,3.13 µM,1.36 µM,3.62 µM,2.46 µM,6.75 µM,1.43 µM,3.37 µM,1.76 µM,3.75 µM,5.64 µM,26.7 µM,1.41 µM,3.19 µM,0.357 µM,> 100 µM,0.651 µM,> 100 µM
CCCCCCCCCCCCOC1C(CNC(=O)C2OC3OC(C)(C)OC3C2NC(=O)CN2CCN(c3ccc(OC)cc3)CC2)OC2OC(C)(C)OC21 (stereo not given),3.35 µM,10.9 µM,11.9 µM,24.1 µM,3.36 µM,13.4 µM,2.12 µM,5.12 µM,3.83 µM,15.8 µM,5.12 µM,17.7 µM,5.56 µM,19.2 µM,4.24 µM,16.4 µM,4.1 µM,16.9 µM,2.86 µM,6.07 µM
O=[N+]([O-])c1cc([N+](=O)[O-])c(Nn2c3ccccc3c3ccccc32)c([N+](=O)[O-])c1,0.305 µM,3.77 µM and 1.7 µM,0.236 µM,4.88 µM and 0.733 µM,0.245 µM,6.63 µM and 0.916 µM,0.323 µM,8.43 µM and 3.43 µM,0.342 µM,> 100 µM,0.348 µM,7.16 µM and 2.27 µM,0.357 µM,7.5 µM,0.418 µM,25.4 µM and 21.2 µM,0.355 µM,> 100 µM,0.232 µM,> 100 µM
CCN(Cc1cccc(Cl)c1)c1ccc(CO)c(Cl)c1,12.9 µM,26.8 µM,15.8 µM,32.8 µM,3.55 µM,17.6 µM,3.61 µM,14.6 µM,0.505 µM,9.87 µM,13.5 µM,27.5 µM,0.0905 µM,0.236 µM,0.111 µM,1.62 µM,11.9 µM,35.4 µM,16.9 µM,39.9 µM
Cn1c2c(c3ccccc31)CCN1C(=O)CCC21 (stereo not given),,> 10 µM,,> 10 µM,,> 10 µM,,> 10 µM,,> 10 µM,,> 10 µM,,> 10 µM,,> 10 µM,,> 10 µM,,> 10 µM
CCOc1ccn(-c2ccc(F)cc2)c(=O)c1C(=O)Nc1ccc(Oc2ccnc(N)c2Cl)c(F)c1,0.404 µM,> 100 µM,7.72 µM,46.4 µM,8.99 µM,63.4 µM,6.63 µM,82.3 µM,19.1 µM,> 100 µM,6.27 µM,42.6 µM,10.6 µM,> 96.1 µM,17.3 µM,> 100 µM,3.63 µM,36.9 µM,6.17 µM,28.7 µM
CCOC(=O)C(C#N)C1=CC(=O)C(=O)c2ccc(O)cc21 (stereo not given),,> 100 µM,,> 100 µM,,> 100 µM,,> 100 µM,,> 100 µM,,39.9 µM,,> 100 µM,,> 100 µM,,> 100 µM,,> 100 µM
Cc1cc(Nc2cc(N3CCN(C)CC3)nc(/C=C/c3ccccc3)n2)n[nH]1,0.0426 µM,> 3.84 µM,0.796 µM,> 4.77 µM,0.263 µM,2.7 µM,0.542 µM,> 6.77 µM,0.644 µM,> 10 µM,0.406 µM,> 5.28 µM,1.29 µM,> 9.46 µM,0.0542 µM,1.62 µM,0.412 µM,> 10 µM,0.103 µM,2.19 µM
C/C(=C(\c1ccc(OCCN2CCCCCC2)cc1)c1ccc(OC(=O)c2ccccc2)cc1)c1ccc(Cl)cc1,3.14 µM,8.72 µM,3.6 µM,8.72 µM,1.61 µM,6.17 µM,1.28 µM,4.57 µM,3.6 µM,9.82 µM,4.24 µM,8.87 µM,5.47 µM,11.1 µM,4.36 µM,10.7 µM,4.2 µM,16.4 µM,0.996 µM,3.33 µM
CC[C@@H](C)/C=C(C)/C=C/C(=O)c1c(O)c(-c2ccc(O)cc2)cn(O)c1=O,1.99 µM,12.7 µM,0.255 µM,4.7 µM,0.266 µM,3.68 µM,3.22 µM,11.4 µM,0.261 µM,12.5 µM,0.468 µM,17.5 µM,0.274 µM,4.88 µM,0.421 µM,11.4 µM,0.314 µM,13.1 µM,0.25 µM,4.82 µM
CCNC(=O)Oc1ccc(/C(=C(/C)Cc2ccc(OC)cc2)c2ccc(OCCN(CC)CC)cc2)cc1,2.01 µM,4.58 µM,1.64 µM,3.22 µM,1.52 µM,3.02 µM,2.02 µM,3.96 µM,2.31 µM,7.84 µM,1.67 µM,3.18 µM,2.99 µM,12.6 µM,2.59 µM,6.87 µM,2.66 µM,7.96 µM,1.76 µM,5.96 µM
O=C(O)C1[O][Sb][O]C(C(=O)O)C1O (stereo not given),> 100 µM,> 100 µM,> 100 µM,> 100 µM,> 100 µM,> 100 µM,> 100 µM,> 100 µM,> 100 µM,> 100 µM,> 100 µM,> 100 µM,> 100 µM,> 100 µM,> 100 µM,> 100 µM,> 100 µM,> 100 µM,> 100 µM,> 100 µM
CC(=O)[C@H]1CCC/C=C/[C@@H]2C[C@H](O)C[C@H]2[C@H](O)/C=C/C(=O)O1,0.75 µM,> 19.7 µM,0.27 µM,3.4 µM,0.296 µM,> 100 µM,0.253 µM,1.44 µM,0.434 µM,> 22.2 µM,0.428 µM,> 100 µM,0.976 µM,2.28 µM,0.803 µM,> 24 µM,0.395 µM,> 62.7 µM,0.313 µM,86.9 µM
Cc1cc2c(-c3nc4ccccn4c3N)c(O)c(O)cc2c(O)c1-c1c(C)cc2c(-c3nc4ccccn4c3N)c(O)c(O)cc2c1O,0.227 µM,> 25 µM,0.81 µM,> 25 µM,1.12 µM,> 25 µM,0.979 µM,> 25 µM,4.85 µM,> 25 µM,0.716 µM,> 25 µM,1.44 µM,> 25 µM,1.36 µM,> 25 µM,0.497 µM,> 25 µM,1.96 µM,> 25 µM

# — PubChem BioAssay (NCI)
